Reference: patent US12479847B2 (DANA-FARBER CANCER INSTITUTE, INC., priority 2019, dated 2025)

Experiments:
Assay in all cases: KINOMEscan (ScanMAX) kinase profiling
Format in all cases: binding
panel of 468 kinases [1] = target: T1, panel of 468 kinases (Homo sapiens, UniProt P00519, E255K); details: ABL1(E255K)-phosphorylated; 1 μM; read-out: % control
T1 construct: purchased KINOMEscan (ScanMAX) service

panel of 468 kinases [2] = target: T2, panel of 468 kinases (Homo sapiens, UniProt P00533, G719S); details: EGFR(G719S); 1 μM; read-out: % control
T2 construct: purchased KINOMEscan (ScanMAX) service
T2 sequence (P00533 25-1210 G719S): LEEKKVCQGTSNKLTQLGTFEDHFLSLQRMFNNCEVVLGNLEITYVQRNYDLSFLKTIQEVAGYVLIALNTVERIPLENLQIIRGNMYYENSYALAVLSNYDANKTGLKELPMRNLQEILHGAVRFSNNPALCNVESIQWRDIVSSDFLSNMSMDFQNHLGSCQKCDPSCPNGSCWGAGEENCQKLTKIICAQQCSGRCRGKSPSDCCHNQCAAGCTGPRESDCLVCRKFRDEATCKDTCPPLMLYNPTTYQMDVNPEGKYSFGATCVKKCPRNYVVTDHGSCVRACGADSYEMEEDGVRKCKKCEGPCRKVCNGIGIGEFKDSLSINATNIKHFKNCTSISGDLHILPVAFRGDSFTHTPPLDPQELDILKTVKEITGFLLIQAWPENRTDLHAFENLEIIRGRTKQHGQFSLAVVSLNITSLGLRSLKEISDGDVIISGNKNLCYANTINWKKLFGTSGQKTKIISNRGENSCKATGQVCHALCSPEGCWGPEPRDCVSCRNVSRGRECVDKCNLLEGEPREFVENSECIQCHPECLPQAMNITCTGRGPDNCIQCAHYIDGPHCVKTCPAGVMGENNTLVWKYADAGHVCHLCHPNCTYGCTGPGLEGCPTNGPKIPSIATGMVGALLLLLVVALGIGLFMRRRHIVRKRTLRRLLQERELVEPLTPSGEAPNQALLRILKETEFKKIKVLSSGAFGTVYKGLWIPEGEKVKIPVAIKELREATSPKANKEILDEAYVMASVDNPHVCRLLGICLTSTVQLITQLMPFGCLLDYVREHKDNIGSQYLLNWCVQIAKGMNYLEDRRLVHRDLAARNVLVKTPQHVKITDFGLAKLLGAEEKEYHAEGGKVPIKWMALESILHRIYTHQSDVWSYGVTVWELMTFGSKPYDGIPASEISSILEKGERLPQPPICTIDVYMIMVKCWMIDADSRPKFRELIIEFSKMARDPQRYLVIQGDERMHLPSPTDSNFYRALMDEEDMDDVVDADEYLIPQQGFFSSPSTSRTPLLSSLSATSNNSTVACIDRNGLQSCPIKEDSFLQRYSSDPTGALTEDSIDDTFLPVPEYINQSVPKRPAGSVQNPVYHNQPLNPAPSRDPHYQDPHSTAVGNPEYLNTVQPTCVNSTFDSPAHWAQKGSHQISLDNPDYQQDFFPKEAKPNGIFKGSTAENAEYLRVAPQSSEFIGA

panel of 468 kinases [3] = target: T3, panel of 468 kinases (Homo sapiens, UniProt P09769); details: FGR; 1 μM; read-out: % control
T3 construct: purchased KINOMEscan (ScanMAX) service
T3 sequence (P09769 whole entry): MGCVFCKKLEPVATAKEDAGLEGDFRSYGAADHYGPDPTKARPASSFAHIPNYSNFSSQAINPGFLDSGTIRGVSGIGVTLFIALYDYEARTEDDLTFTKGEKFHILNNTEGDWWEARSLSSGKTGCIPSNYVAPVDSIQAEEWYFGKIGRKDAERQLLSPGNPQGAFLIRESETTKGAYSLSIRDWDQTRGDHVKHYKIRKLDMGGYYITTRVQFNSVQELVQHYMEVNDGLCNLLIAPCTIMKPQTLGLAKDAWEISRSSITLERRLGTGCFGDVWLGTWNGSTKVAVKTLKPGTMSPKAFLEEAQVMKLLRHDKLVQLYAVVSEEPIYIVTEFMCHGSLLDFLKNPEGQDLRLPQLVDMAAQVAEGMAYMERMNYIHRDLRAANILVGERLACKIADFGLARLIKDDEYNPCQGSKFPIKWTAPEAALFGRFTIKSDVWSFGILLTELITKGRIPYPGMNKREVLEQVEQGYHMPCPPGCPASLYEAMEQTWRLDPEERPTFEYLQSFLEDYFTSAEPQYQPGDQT

panel of 468 kinases [4] = target: T4, panel of 468 kinases (Homo sapiens, UniProt P29376); details: LTK; 1 μM; read-out: % control
T4 construct: purchased KINOMEscan (ScanMAX) service
T4 sequence (P29376 17-864): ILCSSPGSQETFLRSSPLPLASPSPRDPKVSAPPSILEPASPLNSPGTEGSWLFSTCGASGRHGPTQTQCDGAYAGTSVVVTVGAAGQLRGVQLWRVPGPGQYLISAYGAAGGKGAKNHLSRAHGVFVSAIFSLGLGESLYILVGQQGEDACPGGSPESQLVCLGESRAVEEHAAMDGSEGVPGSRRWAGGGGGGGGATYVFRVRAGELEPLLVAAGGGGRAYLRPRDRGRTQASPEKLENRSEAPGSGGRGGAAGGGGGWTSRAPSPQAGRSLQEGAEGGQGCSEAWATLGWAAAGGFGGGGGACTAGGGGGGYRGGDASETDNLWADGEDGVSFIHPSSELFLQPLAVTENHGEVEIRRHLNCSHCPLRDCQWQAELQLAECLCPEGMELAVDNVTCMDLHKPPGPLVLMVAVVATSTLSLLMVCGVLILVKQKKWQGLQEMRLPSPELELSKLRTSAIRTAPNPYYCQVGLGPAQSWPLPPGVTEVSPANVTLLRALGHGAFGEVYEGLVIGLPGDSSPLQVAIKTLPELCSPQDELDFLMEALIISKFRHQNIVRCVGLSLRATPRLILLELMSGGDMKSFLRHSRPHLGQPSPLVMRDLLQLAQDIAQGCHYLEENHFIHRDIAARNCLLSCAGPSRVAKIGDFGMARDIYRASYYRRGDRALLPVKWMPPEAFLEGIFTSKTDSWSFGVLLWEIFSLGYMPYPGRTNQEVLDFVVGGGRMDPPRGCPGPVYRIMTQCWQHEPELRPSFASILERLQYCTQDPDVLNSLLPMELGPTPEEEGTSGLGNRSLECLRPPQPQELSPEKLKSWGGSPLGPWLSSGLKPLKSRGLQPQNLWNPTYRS

panel of 468 kinases [5] = target: T5, panel of 468 kinases (Homo sapiens, UniProt P51451); details: BLK; 1 μM; read-out: % control
T5 construct: purchased KINOMEscan (ScanMAX) service
T5 sequence (P51451 whole entry): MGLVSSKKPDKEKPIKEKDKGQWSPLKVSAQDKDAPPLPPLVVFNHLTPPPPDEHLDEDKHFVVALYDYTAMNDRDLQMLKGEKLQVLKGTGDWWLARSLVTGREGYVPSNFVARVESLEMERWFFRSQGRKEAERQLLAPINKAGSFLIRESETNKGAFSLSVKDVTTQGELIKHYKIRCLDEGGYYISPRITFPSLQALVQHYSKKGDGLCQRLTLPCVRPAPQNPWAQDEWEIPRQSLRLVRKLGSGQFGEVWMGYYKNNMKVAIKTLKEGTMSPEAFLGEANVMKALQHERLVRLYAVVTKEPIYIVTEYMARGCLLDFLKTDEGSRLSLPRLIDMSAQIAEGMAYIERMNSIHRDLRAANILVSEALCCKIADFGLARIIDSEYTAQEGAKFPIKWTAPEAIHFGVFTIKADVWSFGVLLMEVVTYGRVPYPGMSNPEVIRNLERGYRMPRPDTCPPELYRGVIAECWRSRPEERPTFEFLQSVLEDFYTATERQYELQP

panel of 468 kinases [6] = target: T6, panel of 468 kinases (Homo sapiens, UniProt P53779); details: JNK3; 1 μM; read-out: % control
T6 construct: purchased KINOMEscan (ScanMAX) service
T6 sequence (P53779 whole entry): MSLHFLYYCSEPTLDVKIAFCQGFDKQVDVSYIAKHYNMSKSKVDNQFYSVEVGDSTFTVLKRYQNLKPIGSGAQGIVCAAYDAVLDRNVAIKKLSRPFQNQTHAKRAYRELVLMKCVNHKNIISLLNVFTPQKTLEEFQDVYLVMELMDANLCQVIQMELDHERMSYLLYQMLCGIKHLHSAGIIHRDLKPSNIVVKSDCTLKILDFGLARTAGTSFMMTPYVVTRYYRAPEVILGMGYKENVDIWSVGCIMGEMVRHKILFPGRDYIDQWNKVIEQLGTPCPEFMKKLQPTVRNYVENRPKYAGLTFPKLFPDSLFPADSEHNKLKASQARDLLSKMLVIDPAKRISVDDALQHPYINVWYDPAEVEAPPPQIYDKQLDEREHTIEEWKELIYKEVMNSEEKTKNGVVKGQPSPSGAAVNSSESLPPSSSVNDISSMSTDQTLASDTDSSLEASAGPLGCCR

panel of 468 kinases [7] = target: T7, panel of 468 kinases (Homo sapiens, UniProt Q13873); details: BMPR2; 1 μM; read-out: % control
T7 construct: purchased KINOMEscan (ScanMAX) service
T7 sequence (Q13873 27-1038): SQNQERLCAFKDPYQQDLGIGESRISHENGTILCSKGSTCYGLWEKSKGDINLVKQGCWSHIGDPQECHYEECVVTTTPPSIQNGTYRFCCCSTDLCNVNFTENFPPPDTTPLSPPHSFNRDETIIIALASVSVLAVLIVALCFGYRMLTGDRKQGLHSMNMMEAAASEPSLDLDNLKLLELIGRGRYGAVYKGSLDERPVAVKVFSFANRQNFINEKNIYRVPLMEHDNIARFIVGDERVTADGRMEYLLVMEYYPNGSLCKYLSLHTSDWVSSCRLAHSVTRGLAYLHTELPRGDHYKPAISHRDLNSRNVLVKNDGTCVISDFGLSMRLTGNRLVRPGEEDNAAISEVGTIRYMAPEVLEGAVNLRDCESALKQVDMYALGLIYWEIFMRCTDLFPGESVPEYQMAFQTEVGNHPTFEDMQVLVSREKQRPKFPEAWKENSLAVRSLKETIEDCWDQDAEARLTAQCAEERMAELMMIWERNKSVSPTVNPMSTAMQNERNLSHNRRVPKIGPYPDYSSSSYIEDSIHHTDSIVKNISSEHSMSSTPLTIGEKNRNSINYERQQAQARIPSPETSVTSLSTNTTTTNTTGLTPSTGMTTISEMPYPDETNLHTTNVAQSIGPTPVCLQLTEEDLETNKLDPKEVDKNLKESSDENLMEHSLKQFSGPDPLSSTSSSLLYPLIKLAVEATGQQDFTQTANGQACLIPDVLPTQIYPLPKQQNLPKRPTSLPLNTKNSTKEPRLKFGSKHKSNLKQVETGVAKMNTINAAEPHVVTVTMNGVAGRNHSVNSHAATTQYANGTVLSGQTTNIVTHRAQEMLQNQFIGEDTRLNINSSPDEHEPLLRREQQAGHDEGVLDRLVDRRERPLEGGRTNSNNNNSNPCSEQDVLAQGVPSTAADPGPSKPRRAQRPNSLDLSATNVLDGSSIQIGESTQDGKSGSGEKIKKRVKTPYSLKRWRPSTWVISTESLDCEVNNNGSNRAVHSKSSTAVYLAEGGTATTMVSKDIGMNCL

panel of 468 kinases [8] = target: T8, panel of 468 kinases (Homo sapiens, UniProt Q96PN8); details: TSSK3; 1 μM; read-out: % control
T8 construct: purchased KINOMEscan (ScanMAX) service
T8 sequence (Q96PN8 1-268): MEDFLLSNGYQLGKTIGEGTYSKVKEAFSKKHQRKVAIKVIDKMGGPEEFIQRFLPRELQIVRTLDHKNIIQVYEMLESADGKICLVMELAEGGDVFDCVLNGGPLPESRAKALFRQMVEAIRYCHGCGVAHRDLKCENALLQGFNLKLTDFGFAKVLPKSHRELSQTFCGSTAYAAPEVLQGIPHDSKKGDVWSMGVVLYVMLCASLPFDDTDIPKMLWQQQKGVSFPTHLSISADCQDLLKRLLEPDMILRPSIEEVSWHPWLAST

panel of 468 kinases [9] = target: T9, panel of 468 kinases (Homo sapiens, UniProt Q9Y4K4); details: MAP4K5; 1 μM; read-out: % control
T9 construct: purchased KINOMEscan (ScanMAX) service
T9 sequence (Q9Y4K4 whole entry): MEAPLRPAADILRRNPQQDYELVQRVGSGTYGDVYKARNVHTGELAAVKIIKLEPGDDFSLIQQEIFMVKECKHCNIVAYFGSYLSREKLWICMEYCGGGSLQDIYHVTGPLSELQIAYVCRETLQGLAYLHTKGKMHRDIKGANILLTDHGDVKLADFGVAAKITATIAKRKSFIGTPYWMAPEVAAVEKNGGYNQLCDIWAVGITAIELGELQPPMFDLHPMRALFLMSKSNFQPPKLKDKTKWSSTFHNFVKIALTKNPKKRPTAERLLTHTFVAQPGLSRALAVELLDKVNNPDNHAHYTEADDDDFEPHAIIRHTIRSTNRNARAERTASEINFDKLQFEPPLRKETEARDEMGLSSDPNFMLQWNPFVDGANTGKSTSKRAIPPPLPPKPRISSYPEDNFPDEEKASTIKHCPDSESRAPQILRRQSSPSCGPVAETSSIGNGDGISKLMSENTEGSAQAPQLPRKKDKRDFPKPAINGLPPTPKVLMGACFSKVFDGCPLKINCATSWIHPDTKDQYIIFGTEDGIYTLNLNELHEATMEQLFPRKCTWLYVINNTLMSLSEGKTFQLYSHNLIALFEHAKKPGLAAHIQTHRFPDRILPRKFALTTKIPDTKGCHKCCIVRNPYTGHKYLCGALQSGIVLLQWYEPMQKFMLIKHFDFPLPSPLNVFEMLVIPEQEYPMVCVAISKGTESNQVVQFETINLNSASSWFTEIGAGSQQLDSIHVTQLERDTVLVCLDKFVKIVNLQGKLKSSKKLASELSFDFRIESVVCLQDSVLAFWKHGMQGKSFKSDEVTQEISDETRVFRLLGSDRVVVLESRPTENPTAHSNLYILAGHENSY

panel of 468 kinases [10] = target: T10, panel of 468 kinases (Homo sapiens, UniProt Q9Y616); details: IRAK3; 1 μM; read-out: % control
T10 construct: purchased KINOMEscan (ScanMAX) service
T10 sequence (Q9Y616 1-596): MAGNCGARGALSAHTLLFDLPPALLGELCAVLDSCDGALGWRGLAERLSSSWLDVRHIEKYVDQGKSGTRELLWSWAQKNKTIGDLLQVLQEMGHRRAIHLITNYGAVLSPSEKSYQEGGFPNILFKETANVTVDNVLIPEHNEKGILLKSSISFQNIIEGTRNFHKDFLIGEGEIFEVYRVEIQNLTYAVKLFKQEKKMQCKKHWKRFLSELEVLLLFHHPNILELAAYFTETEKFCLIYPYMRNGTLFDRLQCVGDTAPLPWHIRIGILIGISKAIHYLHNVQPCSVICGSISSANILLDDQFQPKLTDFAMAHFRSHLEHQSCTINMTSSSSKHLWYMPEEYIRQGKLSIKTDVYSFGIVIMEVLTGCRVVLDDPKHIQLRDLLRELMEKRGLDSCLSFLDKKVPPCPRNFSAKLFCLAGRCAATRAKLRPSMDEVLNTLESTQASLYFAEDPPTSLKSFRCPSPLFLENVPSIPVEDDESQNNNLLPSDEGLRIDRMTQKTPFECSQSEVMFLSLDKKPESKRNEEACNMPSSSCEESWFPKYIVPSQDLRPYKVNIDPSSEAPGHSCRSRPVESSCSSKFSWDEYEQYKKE

SMILES	remaining binding at 1 µM (panel of 468 kinases [1]) [%]	remaining binding at 1 µM (panel of 468 kinases [2]) [%]	remaining binding at 1 µM (panel of 468 kinases [3]) [%]	remaining binding at 1 µM (panel of 468 kinases [4]) [%]	remaining binding at 1 µM (panel of 468 kinases [5]) [%]	remaining binding at 1 µM (panel of 468 kinases [6]) [%]	remaining binding at 1 µM (panel of 468 kinases [7]) [%]	remaining binding at 1 µM (panel of 468 kinases [8]) [%]	remaining binding at 1 µM (panel of 468 kinases [9]) [%]	remaining binding at 1 µM (panel of 468 kinases [10]) [%]
CNc1nc(Nc2ccc(S(=O)(=O)N3CCC(N4CCOCC4)CC3)cc2OC)nc2[nH]cc(Cl)c12 [Compound 12, 5-chloro-N2-(2-methoxy-4-((4-morpholinopiperidin-1-yl)sulfonyl)phenyl)-N4-methyl-7H-pyrrolo[2,3-d]pyrimidine-2,4-diamine]	92	99	100	22	100	16	97	100	100	100
CNc1nc(Nc2ccc(P3(=O)CCN(C4CCOCC4)CC3)cc2OC)nc2[nH]cc(Cl)c12 [Compound 77, 4-(4-((5-chloro-4-(methylamino)-7H-pyrrolo[2,3-d]pyrimidin-2-yl)amino)-3-methoxyphenyl)-1-(tetrahydro-2H-pyran-4-yl)-1,4-azaphosphinane 4-oxide]	100	100	100	21	100	0.9	85	100	100	94
CNc1nc(Nc2ccc(C(=O)N3CCC(N4CCOCC4)CC3)c3c2OCO3)nc2[nH]cc(Cl)c12 [Compound 75, (7-((5-chloro-4-(methylamino)-7H-pyrrolo[2,3-d]pyrimidin-2-yl)amino)benzo[d][1,3]dioxol-4-yl)(4-morpholinopiperidin-1-yl)methanone]	100	100	100	19	100	0.25	92	100	91	93
